Laboratory results reported in EP0844825B1, “INSECTICIDAL N-(SUBSTITUTED ARYLMETHYL)-4- BIS(SUBSTITUTED PHENYL OR PYRIDYL)METHYL]PIPERIDINES” (FMC CORPORATION, priority 1995, dated 1996).

Tested on: tobacco budworm (Heliothis virescens [Fabricius])
Test: Diet test: test chemical incorporated into artificial diet of tobacco budworm larvae, 5-day exposure
Assay type: in vivo
Conditions: for mortality at 100 µM / IC50 / LC50 / pest or weed control at 100 µM: Heliothis virescens, 120 h; for mortality at 100 µM / pest or weed control at 100 µM: feed or water; for mortality at 100 µM: read-out: Percent Mortality; for IC50: negative log of the concentration that provides 50% growth inhibition, by linear regression, read-out: pl50 (converted); for IC50 / LC50 / pest or weed control at 100 µM / Percent Growth Inhibition: 5 days, * = average of more than one test; for LC50: negative log of the concentration that provides 50% mortality, read-out: pLC50 (converted); for pest or weed control at 100 µM / Percent Growth Inhibition: rate of application 4 (negative log of molar concentration in the diet), second instar larvae, 25°C; for pest or weed control at 100 µM: read-out: Percent Growth Inhibition
Method: Candidate insecticides were incorporated into an artificial diet for evaluation of insecticidal activity against the tobacco budworm (Heliothis virescens [Fabricius]) in the following manner. Stock solutions of test chemical in dimethyl sulfoxide, ranging from […], were prepared for each rate of application. One hundred microliters of each of the stock solutions was manually stirred into 50 mL of a molten (65-70°C) wheat germ-based artificial diet. The 50 mL of molten diet containing the test chemical was poured evenly into twenty wells in the outer two rows on each side of a twenty-five well, five row plastic tray. (Each well in the tray was about 1 cm in depth, with an opening of 3 cm by 4 cm at the lip.) Molten diet containing only dimethyl sulfoxide at the levels used in the test chemical-treated diet was poured into the five wells in the third (center) row of the tray. Each tray therefore contained one test chemical at a single rate of application, together with an untreated control. The rates of application, expressed as the negative log of the molar concentration, and the corresponding concentrations of the stock solution prepared for each rate are shown below:
Single second instar tobacco budworm larvae, selected at a stage of growth at which they uniformly weigh about 5 mg each, were placed in each well. Upon completion of infestation, a sheet of clear plastic was heat-sealed over the top of the tray by use of a common household flat.iron. The trays were held at 25°C at 60% relative humidity for five days in a growth chamber. Lighting was set at 14 hours of light and 10 hours of darkness. After the 5-day exposure period, mortality counts were taken, and the surviving insects were weighed. From the weights of the surviving insects that fed on the treated diet as compared to those insects that fed on the untreated diet, the percent growth inhibition caused by each test chemical was determined. […] Also, where possible, the negative log of the concentration of the test chemical that provided 50% mortality (pLC50) was determined.

SMILES | mortality at 100 µM [%] | other results
OC(c1ccc(C(F)(F)F)cc1)(c1ccc(C(F)(F)F)cc1)C1CCN(Cc2ccc(Oc3ncccn3)cc2)CC1 [Compound 95] | 100 | 
CC(C)c1cnc(-c2ccc(CN3CCC(C(O)(c4ccc(C(F)(F)F)cc4)c4ccc(C(F)(F)F)cc4)CC3)cc2)o1 [Compound 19] | 90 | 
OC(c1ccc(C(F)(F)F)cc1)(c1ccc(C(F)(F)F)cc1)C1CCN(Cc2ccc(Oc3nsnc3Cl)cc2)CC1 [Compound 29] | 60 | 
N#Cc1ccc(Oc2ccc(CN3CCC(C(O)(c4ccc(C(F)(F)F)cc4)c4ccc(C(F)(F)F)cc4)CC3)cc2)nc1 [Compound 72] | 100 | 
[O-][N+]1(Cc2ccc(OCc3ccccn3)cc2)CCC(C(O)(c2ccc(C(F)(F)F)cc2)c2ccc(C(F)(F)F)cc2)CC1 (centres unmarked) [Compound 79] | 100 | 
[O-][N+]1(Cc2ccc(Oc3ccc(Cl)cn3)cc2)CCC(C(O)(c2ccc(C(F)(F)F)cc2)c2ccc(C(F)(F)F)cc2)CC1 (centres unmarked) [Compound 67] | 70 | 
OC(c1ccc(OC(F)(F)F)cc1)(c1ccccc1OC(F)(F)F)C1CCN(Cc2ccc(C3OCCO3)cc2)CC1 (centres unmarked) [Compound 103, N-[4-(1,3-dioxolan-2-yl)phenylmethyl]-4-[(4-trifluoromethoxyphenyl)(2-trifluoromethoxyphenyl)hydroxymethyl]piperidine] | 100 | IC50: ≤ 0.316 µM; LC50: 12.6 µM; pest or weed control at 100 µM: 100%
[O-][n+]1ccccc1-c1ccc(CN2CCC(C(O)(c3ccc(C(F)(F)F)cc3)c3ccc(C(F)(F)F)cc3)CC2)cc1 [Compound 45] | 100 | 
Cc1ccc(Oc2ccc(C[N+]3([O-])CCC(C(O)(c4ccc(C(F)(F)F)cc4)c4ccc(C(F)(F)F)cc4)CC3)cc2)nc1 (centres unmarked) [Compound 69] | 100 | 
COc1ccc(CCN2CCC(C(O)(c3ccc(OC(F)(F)F)cc3)c3ccc(OC(F)(F)F)cc3)CC2)cc1 [Compound 2, N-[2-(4-methoxyphenyl)ethyl]-4-[bis(4-trifluoromethoxyphenyl)hydroxymethyl]piperidine] | 25 | IC50: 2.51 µM; LC50: > 100 µM; pest or weed control at 100 µM: 98%
Cc1noc(-c2ccc(CN3CCC(C(O)(c4ccc(OC(F)(F)F)cc4)c4ccc(OC(F)(F)F)cc4)CC3)cc2)n1 [Compound 6] | 100 | 
[O-][N+]1(Cc2ccc(Oc3ncccn3)cc2)CCC(C(O)(c2ccc(C(F)(F)F)cc2)c2ccc(C(F)(F)F)cc2)CC1 (centres unmarked) [Compound 96] | 100 | 
OC(c1ccc(C(F)(F)F)cc1)(c1ccc(C(F)(F)F)cc1)C1CCN(Cc2ccc(OCc3ccccn3)cc2)CC1 [Compound 78] | 100 | 
Cc1ccc(Oc2ccc(CN3CCC(C(O)(c4ccc(C(F)(F)F)cc4)c4ccc(C(F)(F)F)cc4)CC3)cc2)nc1 [Compound 68] | 90 | 
O=C1OCCN1c1ccc(C[N+]2([O-])CCC(C(O)(c3ccc(C(F)(F)F)cc3)c3ccc(C(F)(F)F)cc3)CC2)cc1 (centres unmarked) [Compound 21] | 10 | 
Cc1cccc(Oc2ccc(C[N+]3([O-])CCC(C(O)(c4ccc(C(F)(F)F)cc4)c4ccc(C(F)(F)F)cc4)CC3)cc2)n1 (centres unmarked) [Compound 76] | 100 | IC50: 0.631 µM; LC50: 6.31 µM; Percent Growth Inhibition: 100%
OC(c1ccc(C(F)(F)F)cc1)(c1ccc(C(F)(F)F)cc1)C1CCN(Cc2ccc(-c3ccccn3)cc2)CC1 [Compound 43] | 100 | IC50: ≤ 0.316 µM; LC50: 3.16 µM; Percent Growth Inhibition: 100%
Cc1cccnc1Oc1ccc(C[N+]2([O-])CCC(C(O)(c3ccc(C(F)(F)F)cc3)c3ccc(C(F)(F)F)cc3)CC2)cc1 (centres unmarked) [Compound 58] | 100 | 
Cc1ccc(-c2ccc(CN3CCC(C(O)(c4ccc(C(F)(F)F)cc4)c4ccc(C(F)(F)F)cc4)CC3)cc2)nc1 [Compound 51] | 100 | 
CC1CN(c2ccc(CN3CCC(C(O)(c4ccc(C(F)(F)F)cc4)c4ccc(C(F)(F)F)cc4)CC3)cc2)C(=O)O1 (centres unmarked) [Compound 22] | 35 | 
Cc1ccnc(Oc2ccc(C[N+]3([O-])CCC(C(O)(c4ccc(C(F)(F)F)cc4)c4ccc(C(F)(F)F)cc4)CC3)cc2)c1 (centres unmarked) [Compound 63] | 100 | 
CC(C)(Oc1ccc(CN2CCC(C(O)(c3ccc(C(F)(F)F)cc3)c3ccc(C(F)(F)F)cc3)CC2)cc1)c1ccccn1 [Compound 86] | 30 | 

SMILES | mortality at 100 µM [%] | other results
Cn1ncn(-c2ccc(CN3CCC(C(O)(c4ccc(C(F)(F)F)cc4)c4ccc(C(F)(F)F)cc4)CC3)cc2)c1=O [Compound 12, N-[4-(4,5-dihydro-1-methyl-5-oxo-1H-1,2,4-triazol-4-yl)phenylmethyl]-4-[bis(4-trifluoromethylphenyl)hydroxymethyl]piperidine] | 35 | IC50: 3.98 µM; LC50: > 100 µM; pest or weed control at 100 µM: 98%
Cn1nnc(-c2ccc(C[N+]3([O-])CCC(C(O)(c4ccc(OC(F)(F)F)cc4)c4ccc(OC(F)(F)F)cc4)CC3)cc2)n1 (centres unmarked) [Compound 15] | 100 | 
CC(C)n1nnc(-c2ccc(CN3CCC(C(O)(c4ccc(C(F)(F)F)cc4)c4ccc(C(F)(F)F)cc4)CC3)cc2)n1 [Compound 35] | 100 | 
CC(C)n1nnc(-c2ccc(C[N+]3([O-])CCC(C(O)(c4ccc(C(F)(F)F)cc4)c4ccc(C(F)(F)F)cc4)CC3)cc2)n1 (centres unmarked) [Compound 36] | 100 | 
COCn1nnc(-c2ccc(CN3CCC(C(O)(c4ccc(C(F)(F)F)cc4)c4ccc(C(F)(F)F)cc4)CC3)cc2)n1 [Compound 41] | 100 | 
[O-][N+]1(Cc2ccc(OCc3cccnc3)cc2)CCC(C(O)(c2ccc(C(F)(F)F)cc2)c2ccc(C(F)(F)F)cc2)CC1 (centres unmarked) [Compound 82] | 25 | 
OC(c1ccc(C(F)(F)F)cc1)(c1ccc(C(F)(F)F)cc1)C1CCN(Cc2ccc(-c3nnn(CCF)n3)cc2)CC1 [Compound 98] | 100 | 
CC(C)(C)n1nnc(-c2ccc(CN3CCC(C(O)(c4ccc(C(F)(F)F)cc4)c4ccc(C(F)(F)F)cc4)CC3)cc2)n1 [Compound 37] | 100 | 
OC(c1ccc(C(F)(F)F)cc1)(c1ccc(C(F)(F)F)cc1)C1CCN(Cc2ccc(-c3ccc(Cl)cn3)cc2)CC1 [Compound 47] | 100 | IC50: 31.6 µM; LC50: 31.6 µM; Percent Growth Inhibition: 100%
Cc1cccc(-c2ccc(CN3CCC(C(O)(c4ccc(C(F)(F)F)cc4)c4ccc(C(F)(F)F)cc4)CC3)cc2)n1 [Compound 49] | 100 | 
[O-][N+]1(Cc2ccc(Oc3nsnc3Cl)cc2)CCC(C(O)(c2ccc(C(F)(F)F)cc2)c2ccc(C(F)(F)F)cc2)CC1 (centres unmarked) [Compound 30] | 40 | 
[O-][n+]1ccccc1-c1ccc(C[N+]2([O-])CCC(C(O)(c3ccc(C(F)(F)F)cc3)c3ccc(C(F)(F)F)cc3)CC2)cc1 (centres unmarked) [Compound 46] | 100 | 
Cn1cnc(-c2ccc(CN3CCC(C(O)(c4ccc(C(F)(F)F)cc4)c4ccc(C(F)(F)F)cc4)CC3)cc2)n1 [Compound 27] | 100 | 
[O-][n+]1ccc(C(F)(F)F)cc1Oc1ccc(CN2CCC(C(O)(c3ccc(C(F)(F)F)cc3)c3ccc(C(F)(F)F)cc3)CC2)cc1 [Compound 65] | 25 | 
Cn1cnc(-c2ccc(C[N+]3([O-])CCC(C(O)(c4ccc(C(F)(F)F)cc4)c4ccc(C(F)(F)F)cc4)CC3)cc2)n1 (centres unmarked) [Compound 28] | 100 | 
Cc1cccc(Oc2ccc(C[N+]3([O-])CCC(C(O)(c4ccc(C(F)(F)F)cc4)c4ccc(C(F)(F)F)cc4)CC3)cc2)[n+]1[O-] (centres unmarked) [Compound 77] | 60 | 
CC1CN(c2ccc(C[N+]3([O-])CCC(C(O)(c4ccc(C(F)(F)F)cc4)c4ccc(C(F)(F)F)cc4)CC3)cc2)C(=O)O1 (centres unmarked) [Compound 23] | 65 | 
[O-][N+]1(Cc2ccc(Oc3ccc(C(F)(F)F)cn3)cc2)CCC(C(O)(c2ccc(C(F)(F)F)cc2)c2ccc(C(F)(F)F)cc2)CC1 (centres unmarked) [Compound 71] | 100 | 
OC(c1ccc(C(F)(F)F)cc1)(c1ccc(C(F)(F)F)cc1)C1CCN(Cc2ccc(Oc3cc(C(F)(F)F)ccn3)cc2)CC1 [Compound 64] | 100 | 
[O-][N+]1(Cc2ccc(-c3nnn(C(F)F)n3)cc2)CCC(C(O)(c2ccc(C(F)(F)F)cc2)c2ccc(C(F)(F)F)cc2)CC1 (centres unmarked) [Compound 39] | 100 | 
COCn1nnc(-c2ccc(C[N+]3([O-])CCC(C(O)(c4ccc(C(F)(F)F)cc4)c4ccc(C(F)(F)F)cc4)CC3)cc2)n1 (centres unmarked) [Compound 42] | 100 | 
[O-][N+]1(Cc2ccc(-c3nnn(CCF)n3)cc2)CCC(C(O)(c2ccc(C(F)(F)F)cc2)c2ccc(C(F)(F)F)cc2)CC1 (centres unmarked) [Compound 99] | 100 | 
